From patent US20250074890A1, “CYANOPYRIDINE AND CYANOPYRIMIDINE BCL6 DEGRADERS” (DANA-FARBER CANCER INSTITUTE, INC., priority 2021, published 2025)
Counter-ions that a name gives are not always drawn.

Molecular target: T1, BCL6 (Homo sapiens, UniProt P41182)
T1 construct: Endogenous BCL6 was tagged with the 11-amino acid SmBiT through CRISPR/Cas9 gene editing; endogenous in cells; host or cells: Su-DHL-4 (CRISPR/Cas9 knock-in, single cell clone)
Experiment: HiBiT cellular degradation assay in Su-DHL-4 cells
Assay type: cell-based
Details: concentration to reach 50% degradation of endogenous SmBiT-tagged BCL6, 24 hours of compound treatment
Description: DC50 (concentration to reach 50% degradation) values were determined from a cellular degradation assay (HiBiT, Promega™) in Su-DHL-4 cells (Table 1). Endogenous BCL6 was tagged with the 11-amino acid SmBiT through CRISPR/Cas9 gene editing and single cell clone selection. After 24 hours of compound treatment, cells were lysed and incubated with LgBiT protein to reconstitute intact nanoluciferase. Substrate was then added and relative luciferase units were measured. Degradation levels for each treatment were taken as a percentage compared to the control, 100% DMSO (Prism).

Row | Compound | DC50 [µM]
1 | CNCC(O)Cn1c(=O)c(OCC(=O)NC)cc2cc(Nc3nc(N4C[C@@H](C)C(F)[C@@H](C)C4)c(C#N)cc3Cl)ccc21 (stereo partly drawn) [Compound 67, 2-((6-((3-Chloro-5-cyano-6-((3S,4S,5R)-4-fluoro-3,5-dimethylpiperidin-1-yl)pyridin-2-yl)amino)-1-(2-hydroxy-3-(methylamino)propyl)-2-oxo-1,2-dihydroquinolin-3-yl)oxy)-N-methylacetamide] | 0.004
2 | CNC(=O)COc1cc2cc(Nc3nc(N4C[C@@H](C)[C@@H](F)[C@@H](C)C4)c(C#N)cc3Cl)ccc2n(C)c1=O [Compound 45, 2-((6-((3-Chloro-5-cyano-6-((3R,4S,5S)-4-fluoro-3,5-dimethylpiperidin-1-yl)pyridin-2-yl)amino)-1-methyl-2-oxo-1,2-dihydroquinolin-3-yl)oxy)-N-methylacetamide] | 0.003
3 | CC(O)CCn1c(=O)n(C)c2ccc(Nc3nc(N4C[C@@H](CCO)[C@H](F)[C@@H](C)C4)c(C#N)cc3F)cc21 (stereo partly drawn) [Compound 56, 5-fluoro-2-[(3R,4R,5S)-4-fluoro-3-(2-hydroxyethyl)-5-methyl-1-piperidyl]-6-[[3-(3-hydroxybutyl)-1-methyl-2-oxo-benzimidazol-5-yl]amino]pyridine-3-carbonitrile] | > 0.4
4 | C[C@H]1CN(c2nc(Nc3ccc4c(c3)n(CCC(C)(C)O)c(=O)n4C)c(Cl)cc2C#N)C[C@@H](O)C1(F)F [Compound 75, 5-chloro-2-((3R,5S)-4,4-difluoro-3-hydroxy-5-methylpiperidin-1-yl)-6-((3-(3-hydroxy-3-methylbutyl)-1-methyl-2-oxo-2,3-dihydro-1H-benzo[d]imidazol-5-yl)amino)nicotinonitrile] | > 0.4
5 | CNC(=O)COc1cc2cc(Nc3nc(N4C[C@@H](C)C(F)[C@@H](C)C4)c(C#N)cc3Cl)ccc2n(CCN(C)C)c1=O (stereo partly drawn) [Compound 77, 2-((6-((3-Chloro-5-cyano-6-((3R,4R,5S)-4-fluoro-3,5-dimethylpiperidin-1-yl)pyridin-2-yl)amino)-1-(2-(dimethylamino)ethyl)-2-oxo-1,2-dihydroquinolin-3-yl)oxy)-N-methylacetamide] | 0.004
6 | CNC(=O)COc1cc2cc(Nc3nc(N4C[C@@H](N)C(F)(F)[C@@H](C)C4)c(C#N)cc3Cl)ccc2n(C)c1=O [Compound 44, 2-((6-((6-((3R,5S)-3-amino-4,4-difluoro-5-methylpiperidin-1-yl)-3-chloro-5-cyanopyridin-2-yl)amino)-1-methyl-2-oxo-1,2-dihydroquinolin-3-yl)oxy)-N-methylacetamide] | 0.07
7 | C[C@@H](O)Cn1c(=O)n(CCC(C)(C)O)c2cc(Nc3nc(N4C[C@@H](N)C(F)(F)[C@@H](C)C4)c(C#N)cc3F)ccc21 [Compound 91, 2-((3R,5S)-3-Amino-4,4-difluoro-5-methylpiperidin-1-yl)-5-fluoro-6-((3-(3-hydroxy-3-methylbutyl)-1-((R)-2-hydroxypropyl)-2-oxo-2,3-dihydro-1H-benzo[d]imidazol-5-yl)amino)nicotinonitrile] | 0.118
8 | C[C@@H]1CN(c2nc(Nc3ccc4c(c3)n(C[C@@H]3CNC(=O)O3)c(=O)n4C)c(F)cc2C#N)C[C@H](C)[C@@H]1F [Compound 87, 5-Fluoro-2-[(3S,4S,5R)-4-fluoro-3,5-dimethyl-1-piperidyl]-6-[[1-methyl-2-oxo-3-[[(5S)-2-oxooxazolidin-5-yl]methyl]benzimidazol-5-yl]amino]pyridine-3-carbonitrile] | 0.101
9 | C[C@@H]1CN(c2nc(Nc3ccc4c(c3)cc(OC[C@@H]3CNCCO3)c(=O)n4C)c(Cl)cc2C#N)C[C@H](C)[C@@H]1F [Compound 70, 5-Chloro-2-((3S,4S,5R)-4-fluoro-3,5-dimethylpiperidin-1-yl)-6-((1-methyl-3-((S)-morpholin-2-ylmethoxy)-2-oxo-1,2-dihydroquinolin-6-yl)amino)nicotinonitrile] | > 0.4
10 | C[C@@H]1CN(c2nc(Nc3ccc4c(c3)n(CCC(C)(C)O)c(=O)n4C)c(F)cc2C#N)C[C@H](N)C1(F)F [Compound 80, 2-((3S,5R)-3-Amino-4,4-difluoro-5-methylpiperidin-1-yl)-5-fluoro-6-((3-(3-hydroxy-3-methylbutyl)-1-methyl-2-oxo-2,3-dihydro-1H-benzo[d]imidazol-5-yl)amino)nicotinonitrile hydrochloride] | > 0.4
11 | CNC(=O)COc1cc2cc(Nc3nc(N4C[C@@H](C)C(F)(F)[C@@H](C)C4)c(C#N)cc3Cl)ccc2nc1OCC1COC1 [Compound 58, 2-((6-((3-chloro-5-cyano-6-((3R,5S)-4,4-difluoro-3,5-dimethylpiperidin-1-yl)pyridin-2-yl)amino)-2-(oxetan-3-ylmethoxy)quinolin-3-yl)oxy)-N-methylacetamide] | > 0.4
12 | CNC(=O)COc1cc2cc(Nc3nc(N4C[C@@H](C)[C@H](F)[C@@H](C)C4)c(C#N)cc3Cl)ccc2n(C)c1=O [Compound 64, 2-((6-((3-chloro-5-cyano-6-((3R,4r,5S)-4-fluoro-3,5-dimethylpiperidin-1-yl)pyridin-2-yl)amino)-1-methyl-2-oxo-1,2-dihydroquinolin-3-yl)oxy)-N-methylacetamide] | 0.007
13 | CNC(=O)COc1cc2cc(Nc3nc(N4C[C@@H](C)C[C@@H](C(=O)O)C4)c(C#N)cc3Cl)ccc2n(C)c1=O [Compound 78, (3R,5S)-1-(5-chloro-3-cyano-6-((1-methyl-3-(2-(methylamino)-2-oxoethoxy)-2-oxo-1,2-dihydroquinolin-6-yl)amino)pyridin-2-yl)-5-methylpiperidine-3-carboxylic acid] | > 0.4
14 | C[C@@H]1C[C@H](N)CN(c2nc(Nc3ccc4c(c3)n(CCC(C)(C)O)c(=O)n4C)c(Cl)cc2C#N)C1 [Compound 36, 2-((3S,5R)-3-amino-5-methylpiperidin-1-yl)-5-chloro-6-((3-(3-hydroxy-3-methylbutyl)-1-methyl-2-oxo-2,3-dihydro-1H-benzo[d]imidazol-5-yl)amino)nicotinonitrile] | > 0.4
15 | CNC(=O)COc1cc2cc(Nc3nc(N4C[C@@H](C)C(F)(F)[C@@H](C)C4)c(C#N)cc3Cl)ccc2n(CC2CNC2)c1=O [Compound 65, 2-((1-(Azetidin-3-ylmethyl)-6-((3-chloro-5-cyano-6-((3R,5S)-4,4-difluoro-3,5-dimethylpiperidin-1-yl)pyridin-2-yl)amino)-2-oxo-1,2-dihydroquinolin-3-yl)oxy)-N-methylacetamide] | 0.056
16 | CNC(=O)COc1cc2cc(Nc3nc(N4C[C@H](CCO)C(F)(F)[C@H](C)C4)c(C#N)cc3Cl)ccc2n(C)c1=O [Compound 63, 2-((6-((3-chloro-5-cyano-6-((3S,5R)-4,4-difluoro-3-(2-hydroxyethyl)-5-methylpiperidin-1-yl)pyridin-2-yl)amino)-1-methyl-2-oxo-1,2-dihydroquinolin-3-yl)oxy)-N-methylacetamide] | 0.039
17 | CC(O)CCn1c(=O)n(C)c2ccc(Nc3nc(N4C[C@H](CCO)[C@@H](F)[C@H](C)C4)c(C#N)cc3F)cc21 (stereo partly drawn) [Compound 57, 5-fluoro-2-[(3S,4S,5R)-4-fluoro-3-(2-hydroxyethyl)-5-methyl-1-piperidyl]-6-[[3-(3-hydroxybutyl)-1-methyl-2-oxo-benzimidazol-5-yl]amino]pyridine-3-carbonitrile] | > 0.4
18 | C[C@@H]1CN(c2nc(Nc3ccc4c(c3)cc(OCC3(C)COC3)c(=O)n4C)c(Cl)cc2C#N)C[C@H](C)C1(F)F [Compound 9, 5-Chloro-2-((3R,5S)-4,4-difluoro-3,5-dimethylpiperidin-1-yl)-6-((1-methyl-3-((3-methyloxetan-3-yl)methoxy)-2-oxo-1,2-dihydroquinolin-6-yl)amino)nicotinonitrile] | > 0.4
19 | C[C@@H]1CN(c2nc(Nc3ccc4c(c3)cc(OC[C@H]3CNCCO3)c(=O)n4C)c(Cl)cc2C#N)C[C@H](C)[C@@H]1F [Compound 71, 5-Chloro-2-((3S,4S,5R)-4-fluoro-3,5-dimethylpiperidin-1-yl)-6-((1-methyl-3-((R)-morpholin-2-ylmethoxy)-2-oxo-1,2-dihydroquinolin-6-yl)amino)nicotinonitrile] | > 0.4
20 | CNC(=O)COc1cc2cc(Nc3nc(N4C[C@@H](C)C(F)[C@@H](C)C4)c(C#N)cc3Cl)ccc2n(CCN2CCOCC2)c1=O (stereo partly drawn) [Compound 68, 2-[[6-[[3-Chloro-5-cyano-6-[(3R,5S)-4-fluoro-3,5-dimethyl-1-piperidyl]-2-pyridyl]amino]-1-(2-morpholinoethyl)-2-oxo-3-quinolyl]oxy]-N-methyl-acetamide] | 0.004
21 | C[C@H]1CN(c2nc(Nc3ccc4c(c3)n(CCC(C)(C)O)c(=O)n4C)c(F)cc2C#N)C[C@@H](O)[C@H]1F [Compound 53, 5-Fluoro-2-((3R,4S,5S)-4-fluoro-3-hydroxy-5-methylpiperidin-1-yl)-6-((3-(3-hydroxy-3-methylbutyl)-1-methyl-2-oxo-2,3-dihydro-1H-benzo[d]imidazol-5-yl)amino)nicotinonitrile] | > 0.4
22 | C[C@H](O)Cn1c(=O)n(CCC(C)(C)O)c2cc(Nc3nc(N4C[C@@H](N)C(F)(F)[C@@H](C)C4)c(C#N)cc3F)ccc21 [Compound 90, 2-((3R,5S)-3-Amino-4,4-difluoro-5-methylpiperidin-1-yl)-5-fluoro-6-((3-(3-hydroxy-3-methylbutyl)-1-((S)-2-hydroxypropyl)-2-oxo-2,3-dihydro-1H-benzo[d]imidazol-5-yl)amino)nicotinonitrile] | 0.073
23 | CNC(=O)COc1cc2cc(Nc3nc(N4C[C@H](C)C[C@H](N)C4)c(C#N)cc3Cl)ccc2n(C)c1=O [Compound 40, 2-((6-((6-((3S,5R)-3-Amino-5-methylpiperidin-1-yl)-3-chloro-5-cyanopyridin-2-yl)amino)-1-methyl-2-oxo-1,2-dihydroquinolin-3-yl)oxy)-N-methylacetamide] | > 0.4
